A word on the MIC: it is the lowest concentration that inhibits growth of the organism. Higher therefore signals a less susceptible organism. A word on the IC50: it is the concentration needed to halve the response being measured.

Experimental findings from ChEMBL document CHEMBL1135082, “Benzylidene rhodanines as novel inhibitors of UDP-N-acetylmuramate/L-alanine ligase” (Bioorg Med Chem Lett, 2002) are described below.

Converted amounts (≈) assume the structure as drawn. Bounds are passed on as bounds.

The subject of assay [1] is Escherichia coli. As to the kind of experiment: The whole cell inhibitory activity was evaluated against the Gram-negative Escherichia coli; Not active. The class given is functional.
Assay [2] deals with Staphylococcus aureus. As to the kind of experiment: The whole cell inhibitory activity was evaluated against Gram-positive methicillin-resistant Staphylococcus aureus (MRSA). The class given is functional.
The nature of assay [3]: Inhibitory concentration against recombinant UDP-N-Acetylmuramate/L-Alanine Ligase (MurC) enzyme.
Assay [4] has as its system CHO. As to the kind of experiment: Cytotoxic effect at mammalian Chinese hamster ovary (CHO) cells. The class given is functional, cell-based. Particulars: Cricetulus griseus.
The test system of assay [5] is CHO. As to the kind of experiment: Cytotoxic effect at mammalian Chinese hamster ovary (CHO) cells; Toxic. The class given is functional, cell-based. To be noted: Cricetulus griseus.

Take `O=C1NC(=S)S/C1=C\c1cc(OCc2ccccc2)cc(OCc2ccccc2)c1`: the MIC in assay [1] and in assay [2] was > 69 µM each time. The IC50 in assay [3] was determined as 12 µM.

For `O=C1NC(=S)S/C1=C\c1cc([N+](=O)[O-])ccc1Sc1ccc(Cl)cc1`, the IC50 was > 73 µM in assay [4] and 24 µM in assay [3]. Further, the results for the minimal inhibitory concentration (MIC) in assay [1] and in assay [2] were > 87 µM and 70 µM (≈ 28.6 µg/mL), respectively.

On to `O=C1NC(=S)S/C1=C\c1ccc(/C=C/c2ccccc2)cc1`, for which the minimal inhibitory concentration (MIC) in assay [1] and in assay [2] was > 93 µM in each case. The IC50 in assay [3] came out at 18 µM.

As for `O=C1NC(=S)S/C1=C\c1cc([N+](=O)[O-])ccc1Oc1ccc(Cl)cc1`, the MIC in assay [1] and in assay [2] was > 76 µM each time. Further, the IC50 in assay [3] amounted to 24 µM.

Take `O=C1NC(=S)S/C1=C/c1cc([N+](=O)[O-])ccc1SCc1ccc(Cl)cc1`: the values for the IC50 in assay [5] and in assay [3] were 29 µM and 27 µM, respectively. Moreover, the MIC in assay [1] was > 65 µM; in assay [2], 31 µM (≈ 13.1 µg/mL).

With `O=C1NC(=S)S/C1=C\c1cccc(Oc2ccccc2)c1`, the values for the IC50 in assay [4] and in assay [3] were > 96 µM and 22 µM, respectively. Besides, the MIC was > 87 µM in assay [1] and 79 µM (≈ 24.8 µg/mL) in assay [2].
